Assay results: US10246442B2, “4-Aminoquinazolin compounds as prolyl hydroxylase inhibitors” (JANSSEN PHARMACEUTICA NV, priority 2011, dated 2019)

Key:
[1] = target: PHD2181-417 (Homo sapiens (Human), UniProt Q9GZT9); assay: PHD enzymatic assay ([14C]-succinic acid production); assay type: biochemical; conditions: purified PHD2181-417, HIF-1α peptide substrate, 30 min pre-incubation; average of results
Summary of the method: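 Recombinant human PHD2 (aa 181-417, E. coli-expressed, tags cleaved) with peptide substrate (10 μM) and [5-14C]-2-oxoglutarate in Tris pH 7.5 with catalase, DTT and ascorbate, 10 min reaction after 30 min compound pre-incubation; compounds at 100 μM final, 1% DMSO. [14C]-succinate separated by DNP precipitation and beta-counted; IC50 from three-parameter logistic fit.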

[2] = system: HIF1-α, Hela cells; assay: Cellular assay for HIF1-α in Hela cells; assay type: cell-based; conditions: Homo sapiens, 100 μM compound, 6 hours, percent of HIF stimulation relative to assay control compound 7-[(4-Chloro-phenyl)-(5-methyl-isoxazol-3-ylamino)-methyl]-quinolin-8-ol
Protocol: Cellular Assay for HIF1-α
Hela cells (ATCC, Manassas, Va.) were plated in 96-well plates at 20,000 cells per well in 100 μl of DMEM containing 10% fetal bovine serum, 1% non-essential amino acids, 50 IU/mL of penicillin and 50 μg/mL of streptomycin (all cell culture reagents from Invitrogen, Carlsbad, Calif.). 24 hours after plating, changed media to 100 ul of DMEM without 10% fetal bovine serum, 1.1 μl of the stock solution for each compound was added and incubated for 6 hours. All compounds were tested with a final compound concentration of 100 μM. The supernatant was removed and the cells were lysed in 55 μl of MSD lysis buffer containing protease inhibitors. 50 μl of the cell lysate was then transferred to a blocked MSD human HIF-1α detection plate (Meso-Scale Discovery, Gaithersburg, Md., as per manufacturers protocol), and incubated at room temperature on an orbital shaker for 2 hour. After 3 washes in PBS, 25 μl of 20 nM anti-HIF1α a detection antibody was added and incubated for 1 hour at room temperature on an orbital shaker. After 3 washes in PBS, 150 μl of 1× read buffer was added and the plate was then read on a MSD SECTOR instrument. Data was analyzed by determining the percent of HIF stimulation in the presence of 100 μM compound relative to an assay control compound, 7-[(4-Chloro-phenyl)-(5-methyl-isoxazol-3-ylamino)-methyl]-quinolin-8-ol.

[3] = system: Erythropoietin secretion, Hep-3B cells; assay: Cellular assay: EPO secretion in Hep-3B cells; assay type: cell-based; conditions: Homo sapiens, Hep3B, 100 μM compound, 24 hours, percent of EPO secretion relative to assay control compound 7-[(4-Chloro-phenyl)-(5-methyl-isoxazol-3-ylamino)-methyl]-quinolin-8-ol, read-out: Cellular % EPO Stimulation
Summary of the method: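 Compounds at 100 μM final were added to Hep-3B cells 24 h after plating and left for 24 h. Secreted EPO in supernatant measured by MSD electrochemiluminescence immunoassay. Reported as percent EPO secretion relative to an 8-hydroxyquinoline reference control compound.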

PHD2181-417, sequence (Q9GZT9 181-417): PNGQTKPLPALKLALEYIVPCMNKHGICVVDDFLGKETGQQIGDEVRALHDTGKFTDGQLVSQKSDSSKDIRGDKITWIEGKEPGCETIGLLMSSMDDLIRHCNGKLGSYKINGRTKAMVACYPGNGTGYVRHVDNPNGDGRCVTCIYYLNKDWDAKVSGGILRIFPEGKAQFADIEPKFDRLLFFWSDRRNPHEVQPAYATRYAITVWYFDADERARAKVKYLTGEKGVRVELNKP

| Compound | Enzyme pIC50 [1] | activation at 100 µM [2] | activation at 100 µM [3] |
| --- | --- | --- | --- |
| Cc1cccc(C)c1Oc1cc2c(N3CCC(O)CC3)nc(-n3cc(C(=O)O)cn3)nc2cc1F [Example 19, 1-(6-(2,6-Dimethylphenoxy)-7-fluoro-4-(4-hydroxypiperidin-1-yl)quinazolin-2-yl)-1H-pyrazole-4-carboxylic acid] | 6.9 | 140% |  |
| CCCN(CCC)c1nc(-n2cc(C(=O)O)cn2)nc2cc(Oc3ccccc3)ccc12 [Example 93, 1-(4-(Dipropylamino)-7-phenoxyquinazolin-2-yl)-1H-pyrazole-4-carboxylic acid] |  | 43% |  |
| O=C(O)c1cnn(-c2nc(Nc3ccccc3)c3cc(C4CCCCC4)ccc3n2)c1 [Example 28, 1-(6-Cyclohexyl-4-(phenylamino)quinazolin-2-yl)-1H-pyrazole-4-carboxylic acid] | 7.3 |  | 31% |
| O=C(O)c1cnn(-c2nc(NC3CC3)c3cc(C4CCCCC4)ccc3n2)c1 [Example 32, 1-(6-Cyclohexyl-4-(cyclopropylamino)quinazolin-2-yl)-1H-pyrazole-4-carboxylic acid] | 6.7 |  | 49% |
| Cc1cccc(C)c1Oc1cc2c(NCC3CCCCC3)nc(-n3cc(C(=O)O)cn3)nc2cc1F [Example 13, 1-(4-((Cyclohexylmethyl)amino)-6-(2,6-dimethylphenoxy)-7-fluoroquinazolin-2-yl)-1H-pyrazole-4-carboxylic acid] | 6.9 |  | 10% |
| O=C(O)c1cnn(-c2nc(N3CCCCC3)c3cc(-c4ccccc4)ccc3n2)c1 [Example 45, 1-(6-Phenyl-4-(piperidin-1-yl)quinazolin-2-yl)-1H-pyrazole-4-carboxylic acid] | 7.2 |  | 8% |
| Cc1cccc(C)c1Oc1cc2c(Nc3ccccc3)nc(-n3cc(C(=O)O)cn3)nc2cc1F [Example 6, 1-[6-(2,6-Dimethyl-phenoxy)-7-fluoro-4-phenylamino-quinazolin-2-yl]-1H-pyrazole-4-carboxylic acid] | 7.4 |  | 22% |
| CN(C)c1nc(-n2cc(C(=O)O)cn2)nc2ccc(-c3ccccc3)cc12 [Example 41, 1-(4-(Dimethylamino)-6-phenylquinazolin-2-yl)-1H-pyrazole-4-carboxylic acid] | 7.2 |  | 43% |
| CNc1nc(-n2cc(C(=O)O)cn2)nc2ccc(C3CCCCC3)cc12 [Example 22, 1-(6-Cyclohexyl-4-methylamino-quinazolin-2-yl)-1H-pyrazole-4-carboxylic acid] | 7.1 |  | 48% |
| Nc1nc(-n2cc(C(=O)O)cn2)nc2ccc(C3CCCCC3)cc12 [Example 24, 1-(4-Amino-6-cyclohexylquinazolin-2-yl)-1H-pyrazole-4-carboxylic acid] | 7.5 |  | 36% |
| O=C(O)c1cnn(-c2nc(N3CCCCCC3)c3ccc(Oc4ccccc4)cc3n2)c1 [Example 87, 1-(4-(Azepan-1-yl)-7-phenoxyquinazolin-2-yl)-1H-pyrazole-4-carboxylic acid] |  | 20% |  |
| O=C(O)c1cnn(-c2nc(N3CCOCC3)c3cc(C4CCCCC4)ccc3n2)c1 [Example 33, 1-(6-Cyclohexyl-4-morpholinoquinazolin-2-yl)-1H-pyrazole-4-carboxylic acid] | 6.8 |  | 36% |

Second part, led by results:

| Enzyme pIC50 [1] | Compound | activation at 100 µM [2] | activation at 100 µM [3] |
| --- | --- | --- | --- |
| 6.3 | O=C(O)c1cnn(-c2nc(N3CCSCC3)c3ccc(Oc4ccccc4)cc3n2)c1 [Example 90, 1-(7-Phenoxy-4-thiomorpholinoquinazolin-2-yl)-1H-pyrazole-4-carboxylic acid] | 7.7% |  |
| 6.4 | N#CC1CCN(c2nc(-n3cc(C(=O)O)cn3)nc3ccc(-c4ccccc4)cc23)CC1 [Example 59, 1-(4-(4-Cyanopiperidin-1-yl)-6-phenylquinazolin-2-yl)-1H-pyrazole-4-carboxylic acid] | 45% |  |
| 6.1 | O=C(O)c1cnn(-c2nc(N3CCCCC3)c3ccc(-c4ccccc4)cc3n2)c1 [Example 82, 1-(7-Phenyl-4-(piperidin-1-yl)quinazolin-2-yl)-1H-pyrazole-4-carboxylic acid] | 4.6% |  |
| 6.5 | CC(C)(C)Nc1nc(-n2cc(C(=O)O)cn2)nc2ccc(-c3ccccc3)cc12 [Example 52, 1-(4-(tert-Butylamino)-6-phenylquinazolin-2-yl)-1H-pyrazole-4-carboxylic acid] | 37% |  |
| 6.9 | O=C(O)c1cnn(-c2nc(NC3CCOCC3)c3cc(Oc4ccc(Cl)cc4)ccc3n2)c1 [Example 68, 1-(6-(4-Chlorophenoxy)-4-((tetrahydro-2H-pyran-4-yl)amino)quinazolin-2-yl)-1H-pyrazole-4-carboxylic acid] |  | 40% |
| 7.0 | O=C(O)c1cnn(-c2nc(NC3CC3)c3cc(Oc4ccc(Cl)cc4)ccc3n2)c1 [Example 62, 1-(6-(4-Chlorophenoxy)-4-(cyclopropylamino)quinazolin-2-yl)-1H-pyrazole-4-carboxylic acid] |  | 32% |
| 7.3 | CCN(C)c1nc(-n2cc(C(=O)O)cn2)nc2ccc(OC3CCCCC3)cc12 [Example 177, 1-(6-(cyclohexyloxy)-4-(ethyl(methyl)amino)quinazolin-2-yl)-1H-pyrazole-4-carboxylic acid] |  | 56% |
| 7.0 | CC(C)c1ccc2nc(-n3cc(C(=O)O)cn3)nc(N(C)C)c2c1 [Example 185, 1-(4-(dimethylamino)-6-isopropylquinazolin-2-yl)-1H-pyrazole-4-carboxylic acid] |  | 62% |
| 6.8 | O=C(O)c1cnn(-c2nc(N3CCSCC3)c3cc(-c4ccccc4)ccc3n2)c1 [Example 54, 1-(6-Phenyl-4-thiomorpholinoquinazolin-2-yl)-1H-pyrazole-4-carboxylic acid] |  | 25% |
| 6.8 | CC(C)c1cc2c(N3CCOCC3)nc(-n3cc(C(=O)O)cn3)nc2cc1Cl [Example 160, 1-(7-chloro-6-isopropyl-4-morpholinoquinazolin-2-yl)-1H-pyrazole-4-carboxylic acid] |  | 28% |
| 7.0 | O=C(O)c1cnn(-c2nc(N3CCCCC3)c3ccc(Oc4ccccc4)cc3n2)c1 [Example 79, 1-(7-Phenoxy-4-(piperidin-1-yl)quinazolin-2-yl)-1H-pyrazole-4-carboxylic acid] |  | 38% |
| 6.7 | CN1CCCN(c2nc(-n3cc(C(=O)O)cn3)nc3ccc(Oc4ccc(Cl)cc4)cc23)CC1 [Example 71, 1-(6-(4-Chlorophenoxy)-4-(4-methyl-1,4-diazepan-1-yl)quinazolin-2-yl)-1H-pyrazole-4-carboxylic acid] |  | 17% |
| 6.8 | O=C(O)c1cnn(-c2nc(NC3CC3)c3cc(OC4CCCCC4)ccc3n2)c1 [Example 176, 1-(6-(cyclohexyloxy)-4-(cyclopropylamino)quinazolin-2-yl)-1H-pyrazole-4-carboxylic acid] |  | 35% |
| 6.8 | O=C(O)c1cnn(-c2nc(NC3CC3)c3cc(Oc4ccccc4)ccc3n2)c1 [Example 75, 1-(4-(Cyclopropylamino)-6-phenoxyquinazolin-2-yl)-1H-pyrazole-4-carboxylic acid] |  | 20% |
